No end group written: not given here.
Columns and labels:
[1] = USP type 2 dissolution of Product #1a with peptide in the medium; details: for ascorbic acid recovered / maintained (in words): 0.25 mM, 45 min
Description: (§1) The dissolution studies described herein used a U.S. Pharmacopeia (USP) type 2 apparatus with 500 ml distilled H2O at 37° C. stirred at 50 RPM. […] Oxygen concentration was monitored with a Clarke electrode calibrated against argon and air sparged water at 37 C. The disappearance of several components was gauged against a mixture of pure standards of known concentration.
Product #1a also contained caffeine.

[2] = product #2; 1 mM peptide
Description: as §1

[3] = Decay of 5-MTHF in HEPES pH 7.2 with cupric sulfate and peptide; assay type: physicochemical; details: for half-life of 5-MTHF: 150 μM cupric sulfate
Description: (§2) Aqueous solutions of air saturated buffer, peptide, one or more vitamins, and metal salt (e.g. ferrous chloride or cupric sulfate) were combined and incubated at 37 C, unless otherwise stated. Samples were injected into the HPLC system as a function of time and monitored by a photodiode array detector.

[4] = 3 mM peptide, 3 mM ferrous chloride, 40 mM MES pH 6.2
Description: as §2

[5] = Water uptake and handling of peptide salts on exposure to atmosphere or humidity; assay type: physicochemical; details: for handling state after exposure to the atmosphere / weight gain (water) when left open to the atmosphere: ambient
Description: One such matrix is microcrystalline cellulose which is commonly used as an excipient in vitamin and mineral products. A method of combining the peptide salt with the excipient was also developed in which the former is dissolved in a suitable solvent, for example water, the excipient added with stirring, and removing the solvent from the mixture, for example by rotary evaporation under reduced pressure or lyophilization.
The resulting material was crushed to pass through a 200 mesh sieve.
The precipitate was resuspended in 0.5 ml ice-cold water, centrifuged again, and the second supernate discarded.
The precipitate was resuspended in 0.5 ml ice-cold water, recentrifuged, and the second supernate discarded. […] This was centrifuged and dried under high vacuum over P2O5.

[6] = Effect of cupric sulfate on folic acid plus sodium ascorbate in various buffers; details: for initial ascorbate lost after 2 hours: 10 mM HEPES pH 7.2, 150 μM cupric sulfate
Description: as §2
Reactions were continuously but slow sparged with air so that oxygen would not become limiting.

[7] = Effect of cupric sulfate on vitamin B12, thiamine, folic acid and sodium ascorbate in MES pH 6.2; assay type: physicochemical; details: 3 mM peptide; 10 mM MES pH 6.2, 150 μM cupric sulfate
Description: In the presence of 3 mM 1,1,1-triaspartate (as the tetra-sodium salt) the loss of Vitamin B12 was limited to about 20% even after 2 hours. Thiamine also rapidly disappeared by 40% over the first 26 minutes and then remained constant in the absence of an aspartate peptide. However, with 3 mM Asp-Asp-Asp included only 8% was lost at 36 min.

[8] = Decay of sodium ascorbate in HEPES pH 7.2 with 63 μM cupric sulfate; assay type: physicochemical
Description: Example 11 The effect of 1,1,1-Ala-Asp-Asp on the decay of sodium ascorbate in 10 mM HEPES pH 7.2 at 37 was compared with 1,1,1-triaspartate in the presence of 63 μM cupric sulfate (equivalent to 2 mg of elemental copper per 500 mL). […] This difference is somewhat offset by the ˜12% lower molecular weight of the former.

[9] = USP type 2 dissolution of Product #1b with copper added as CuSO4 and peptide; assay type: physicochemical
Description: as §1

[10] = Decomposition of 5-MTHF in 1 mM HCl with cupric sulfate; assay type: physicochemical; details: 3 mM peptide, 150 μM cupric sulfate, 37 C
Description: The decomposition of 5-MTHF is slower in acidic solutions than at neutral pH, and this was found even in the presence of cupric ions. […] With 3 mM 1,1,1-triaspartic free acid also present the time to half decomposition was increased to around 30 minutes.

[11] = 2 mM peptide, 25 μM 5-MTHF, 10 mM HEPES pH 7.2, 37 C
[12] = 3 mM peptide, 50 mM MES pH 5.5, 150 μM cupric sulfate

N[C@@H](CC(=O)O)C(=O)O [aspartic acid, reference compound]
rate of oxygen consumption compared with no peptide ([1]; Product #1a, 0.25 mM peptide): no improvement | ascorbic acid recovered / maintained (in words) ([1]; Product #1a): no improvement

N-acetyl-1,1,1-triaspartic acid [reference compound]
ability to inhibit oxidative destruction of other multivitamin components ([1]; test conditions not stated): lack of effectiveness

Asp-Asp-Asp tetrasodium salt [tetra-sodium 1,1,1-triaspartate, Tetra-sodium-1,1,1-triaspartate]
increase of average recovery of ascorbic acid at 45 minutes over no peptide [2]: 16% | increase of average recovery of thiamine at 45 minutes over no added peptide [2]: 20% | half-life of 5-MTHF [3, 11]: 3.3 h | time without significant loss of 5-MTHF [4]: about 50 minutes | decrease of 5-MTHF thereafter ([4]; after about 50 minutes): about 17 % per hour | handling state after exposure to the atmosphere ([5]; open to the atmosphere): became sticky | weight gain (water) when left open to the atmosphere ([5]; open to the atmosphere): 14% | ascorbic acid recovered after 45 min, higher than with water only ([1]; Product #1a, 0.125 mmole peptide in 500 mL (0.25 mM), initial pH ~6.5, 37° C.): about 16 fold | oxygen remaining after 45 min, part of the original concentration ([1]; Product #1a, 0.25 mM peptide): about a third | rate of oxygen consumption compared with no peptide ([1]; Product #1a, 0.25 mM peptide): dramatically decreased | initial ascorbate lost after 2 hours ([6]; 1 mM peptide): 33% | initial ascorbate lost after 2 hours ([6]; 3 mM peptide): 18% | ascorbate remaining by 32 minutes ([6]; 3 mM peptide, 10 mM MES pH 6.2, 150 μM cupric sulfate, air sparged): 35% | loss of Vitamin B12 after 2 hours [7]: about 20%

Ferrous 1,1,1-triaspartate [Example P]
color / oxidation when open to air via a drying tube ([5]; open to air via a drying tube): did not change color or significantly oxidize | weight gain (water) when left open to the atmosphere ([5]; open to the atmosphere): 13% | color / oxidation when kept open to the atmosphere ([5]; open to the atmosphere, several days): became dark brown due to partial oxidation to iron(III)

penta-sodium 1,1,1,1-tetraaspartate (DDDD; also: penta-sodium salt)
effectiveness compared with triaspartic acid on a molar basis [3]: just as effective on a molar basis | half-life of 5-MTHF [3, 11]: 2.97 h

1,1,1-Ala-Asp-Asp
effectiveness compared with triaspartic acid on a molar basis [8]: about half as effective | 1st-order rate of ascorbate loss compared with Asp-Asp-Asp ([8]; 0.25 mM peptide, 63 μM cupric sulfate, 10 mM HEPES pH 7.2, 37): almost twice as fast

Asp-Asp-Asp
half-life of 5-MTHF (in words) ([3]; 0.5 mM peptide): longer than Asp2 | extent of caffeine oxidation to 1,3,7-trimethyluric acid compared with no peptide ([1]; Product #1a, 0.25 mM peptide): more than halved | folic acid in filtrate, of the labeled amount, 10 minute sample ([1]; Product #1a, 0.25 mM peptide): about 55% | folic acid in filtrate, of the labeled amount, 45 minute sample ([1]; Product #1a, 0.25 mM peptide): about 70% | p-aminobenzoyl-glutamate in the final sonicated sample compared with absence of peptide ([1]; Product #1a, 0.25 mM peptide): decreased to half | thiamine present at 45 minutes, of labeled content ([1]; Product #1a, 0.25 mM peptide): 104% | thiamine present at 45 minutes, of the actual content of the tablets ([1]; Product #1a, 0.25 mM peptide): 83% | concentration required for half maximal effect in preventing loss of ascorbate ([9]; 1 mg of copper added as CuSO4, compared with 2 mg): somewhat lower concentration | EC50 ([9]; copper added as CuSO4, peptide 0.05 to 0.5 mM, hyperbolic fit, read-out: concentration required for 50% of maximal effectiveness in preventing ascorbate loss): ~50 µM | folic acid recovered after 82 minutes [6, 12]: more than 50% | time until ascorbate completely consumed [6, 12]: 47 min | time to half decomposition of 5-MTHF [10]: around 30 minutes | thiamine lost at 36 min [7]: 8%

Calcium1.5-1,1,1-triaspartate [Example D]
handling state after 24 hours at 90% RH ([5]; 90% RH, 24 hours): clumped slightly, but was easy to break up and was not sticky | handling state after exposure to the atmosphere ([5]; open to the atmosphere): remained free flowing flakes that were never sticky | weight gain (water) when left open to the atmosphere ([5]; open to the atmosphere): ~10%

tri-sodium 1,1,1-His-Asp-Asp [reference compound]
maintenance of ascorbate or thiamine, diminishing oxygen consumption, or oxidation of other components ([1]; Product #1a, 0.25 mM peptide, pH ~6.5): No improvement

tri-sodium 1,1-diaspartate
half-life of 5-MTHF [3, 11]: 1.2 h | half-life of 5-MTHF ([3]; 3 mM peptide, HEPES pH 7.2, 37 C): 1.45 h | half-life of 5-MTHF ([3]; 4 mM peptide, HEPES pH 7.2, 37 C): 1.67 h | profile of folic acid appearance in solution ([1]; Product #1a, 0.25 mM peptide): greater than without any peptide, and similar to that liberated by 0.05 mM Asp-Asp-Asp | profile of p-aminobenzoyl-glutamate formation ([1]; Product #1a, 0.25 mM peptide): suppressed in comparison to without any peptide, and similar to 0.05 mM Asp-Asp-Asp | profile of thiamine appearance in solution ([1]; Product #1a, 0.25 mM peptide): not significantly different than without peptide | rate of oxygen consumption compared with no peptide ([1]; Product #1a, 0.25 mM peptide): less than without a peptide | ascorbic acid recovered / maintained (in words) ([1]; Product #1a): greater than with no Asp2 but somewhat less than in the presence of 0.25 mM Asp-Asp-Asp

Reference: patent US11912785B2, “Peptide compositions for slowing degradation of vitamin mineral supplements, foods, pharmaceutical and cosmetics” (priority 2017, dated 2024)
